Our source for the EC50, MCC and Activity values is ChEMBL document CHEMBL5108006, “Synthesis and antiviral properties of biomimetic iminosugar-based nucleosides” (Eur J Med Chem, 2022).

For data set [1], the system named is Human betaherpesvirus 5. Type of data set: functional, organism-based. Conditions: Human betaherpesvirus 5, Davis, HEL.
A further data set has as its system Vaccinia virus. As to the kind of experiment: microbe, parasite or virus in culture. Conditions: Orthopoxvirus vaccinia, HEL.
Data set [2] in a line: (§1) Cytotoxicity against HEL cells assessed as alteration of cell morphology by microscopic analysis. The format is toxicity, cell-based. Conditions: human, HEL cells.
In data set [3] the test system is Human alphaherpesvirus 1. Type of data set: functional, organism-based. Conditions: Human alphaherpesvirus 1, KOS, HEL.
In data set [4] the test system is Human alphaherpesvirus 3. Type of data set: functional, organism-based. Conditions: Human alphaherpesvirus 3, O7-1, HEL.
Another data set deals with Human alphaherpesvirus 2. The format is functional, organism-based. Conditions: Human alphaherpesvirus 2, G, HEL.
Data set [5] deals with Human betaherpesvirus 5. The format is functional, organism-based. Conditions: Human betaherpesvirus 5, AD-169, HEL.
The subject of data set [6] is Human alphaherpesvirus 1. Type of data set: functional, organism-based. Conditions: Human alphaherpesvirus 1, KOS, HEL. The source holds these as a separate data set.
The test system of data set [7] is Human alphaherpesvirus 3. The format is functional, organism-based. Conditions: Human alphaherpesvirus 3, OKA, HEL.
The test system of another data set is Human adenovirus 2. The format is functional, organism-based. Conditions: Human mastadenovirus C, HEL.
In the next data set the test system is HEL. Described as §1. Type of data set: toxicity, cell-based. Conditions: human, hel.

On to `Nc1nc2c(ncn2COC(CO)CO)c(=O)[nH]1` [GANCICLOVIR], for which the EC50 is 0.63 µM in the data set on Human betaherpesvirus 5 [1] and greater than 100 µM in the data set on Vaccinia virus. Further, the MCC in data set [2] was greater than 100 µM.

In the data set on Human alphaherpesvirus 1 [3], `Nc1ccn(C[C@@H](CO)OCP(=O)(O)O)c(=O)n1` [CIDOFOVIR] yielded an EC50 of 1 µM. In [2], the MCC is greater than 250 µM.

Regarding `O=c1[nH]c(=O)n([C@@H]2CN[C@H](CO)[C@@H](O)C2)cc1I`, the EC50 in the data set on Human alphaherpesvirus 3 [4] is 61 µM; in the data set with Human alphaherpesvirus 2, 45 µM; in the data set with Human betaherpesvirus 5 [1], 67 µM; in the data set with Human alphaherpesvirus 1 [3] it was 34 µM; in the data set on Vaccinia virus, 50 µM; with Human betaherpesvirus 5 [5] it was 76 µM. Moreover, the EC50 with Human alphaherpesvirus 1 [6] was determined as 45 µM; with Human alphaherpesvirus 3 [7], 50 µM; with Human adenovirus 2 it was 50 µM. For the same molecule, the MCC in data set [2] is greater than 100 µM.

Consider `O=c1[nH]c(=O)n([C@H]2C[C@H](O)[C@@H](CO)O2)cc1/C=C/Br` [BRIVUDINE], for which the results for the EC50 in the data set with Human alphaherpesvirus 3 [4] and with Human alphaherpesvirus 3 [7] were 2.4 µM and 0.042 µM, respectively. For the same molecule, in data set [2], the MCC is greater than 250 µM.

For `Nc1nc2c(ncn2COCCO)c(=O)[nH]1` [ACYCLOVIR], the EC50 in the data set with Human alphaherpesvirus 3 [4] was 14.7 µM; in the data set with Human alphaherpesvirus 1 [3], 126 µM; in the data set with Vaccinia virus, greater than 250 µM; in the data set on Human alphaherpesvirus 3 [7], 0.7 µM. Further, the MCC in [2] was greater than 250 µM.

Regarding `Nc1nc(=O)n([C@@H]2CN[C@H](CO)[C@@H](O)C2)cc1F`, in the data set on HEL, the Activity entry is given as “Non-Toxic”.
